Results taken from ChEMBL document CHEMBL4428037 (J Med Chem, 2016).
Calls of active or inactive are those of the source. No cut-off for these calls is given here.

How the values were obtained:
NCI-H460 [1] = experiment: Inhibition of colony formation in human NCI-H460 cells incubated for 9 days by crystal violet staining based assay; type: functional, cell-based
A549 [2] = experiment: Induction of apoptosis in human A549 cells assessed as necrotic cells level at 40 nM incubated for 24 hrs by Annexin V-FITC/PI staining based FACS flow cytometry (reference value: 0.37%); type: functional
A549 [3] = experiment: Induction of apoptosis in human A549 cells assessed as increase in PARP cleavage level incubated for 24 hrs by Western blotting; type: functional, cell-based
A549 [4] = experiment: Induction of apoptosis in human A549 cells assessed as late apoptotic cells level at 10 nM incubated for 24 hrs by Annexin V-FITC/PI staining based FACS flow cytometry (reference value: 2.15%); type: functional
HeLa = experiment: Growth inhibition of human HeLa cells incubated for 72 hrs by MTT assay; type: functional, cell-based
PC-3 = experiment: Growth inhibition of human PC3 cells incubated for 72 hrs by MTT assay; type: functional, cell-based; details: PC-3, 72 h
A549 [5] = experiment: Induction of apoptosis in human A549 cells assessed as late apoptotic cells level at 20 nM incubated for 24 hrs by Annexin V-FITC/PI staining based FACS flow cytometry (reference value: 2.15%); type: functional
Tubulin (Sus scrofa) [6] = biological target: T1, Tubulin (Sus scrofa) (UniProt P02554+P02550); experiment: Displacement of [3H]colchicine from biotinylated porcine tubulin at 1 uM incubated for 2 hrs by competition scintillation proximity; type: protein assay
A549 [7] = experiment: Induction of apoptosis in human A549 cells assessed as induction of nucleus fragmentation at 40 nM incubated for 24 hrs microscopy; type: functional, cell-based
HUVEC [8] = experiment: Inhibition of capillary tube formation in HUVEC assessed as reduction in tube-like structures formation incubated for 8 hrs by fluorescence microscopy based 3D-matrigel assay; type: functional, cell-based; details: Homo sapiens
MCF7 = experiment: cells; details: Homo sapiens, MCF7, 72 h
A549 [9] = experiment: Induction of apoptosis in human A549 cells assessed as early apoptotic cells level at 40 nM incubated for 24 hrs by Annexin V-FITC/PI staining based FACS flow cytometry (reference value: 0.65%); type: functional
HUVEC [10] = experiment: Toxicity in HUVEC assessed as effect on cell proliferation at 10 to 40 nM incubated for 8 hrs; type: cell-based; details: human, 0.04 µM
A549 [11] = experiment: Induction of apoptosis in human A549 cells assessed as increase in cleaved caspase-3 level incubated for 24 hrs by Western blotting; type: functional, cell-based
A549 [12] = experiment: Induction of cell cycle arrest in human A549 cells assessed as accumulation at G2/M phase at 40 nM incubated for 24 hrs by propidium iodide staining based FACS flow cytometry; type: functional
[13] = system: Non-small cell lung cancer cell line; experiment: Antitumor activity against human NSCLC xenografted in Balb/c-nu mouse assessed as induction of delay in tumor volume increase at 12.5 mg/kg, ip dosed every day for 21 consecutive days and measured every 3 days; type: functional, organism-based
A549 [14] = experiment: Induction of apoptosis in human A549 cells assessed as induction of chromatin condensation at 40 nM incubated for 24 hrs microscopy; type: functional, cell-based
[15] = system: Non-small cell lung cancer cell line; experiment: Antitumor activity against human NSCLC xenografted in Balb/c-nu mouse assessed as inhibition of tumor growth at 50 mg/kg, ip dosed every day for 21 consecutive days and measured every 3 days; type: functional; details: 72 h, read-out: TGI
A549 [16] = experiment: Induction of apoptosis in human A549 cells assessed as early apoptotic cells level at 20 nM incubated for 24 hrs by Annexin V-FITC/PI staining based FACS flow cytometry (reference value: 0.65%); type: functional
A549 [17] = experiment: Induction of apoptosis in human A549 cells assessed as live cells level at 40 nM incubated for 24 hrs by Annexin V-FITC/PI staining based FACS flow cytometry (reference value: 96.83%); type: functional
A549 [18] = experiment: Cytotoxicity against human A549 cells assessed as reduction in cell viability at 5 nM to 80 nM incubated for 24 hrs by trypan blue staining assay; type: cell-based; details: a549, 24 h, 0.005 µM
[19] = biological target: T2, Tubulin alpha (Homo sapiens) (UniProt P0DPH7+P68366+Q71U36+P68363+Q9BQE3+Q6PEY2+A6NHL2+Q9NY65); experiment: Inhibition of alpha tubulin polymerization in human A549 cells assessed as induction of microtubule network dis-organization at 40 nM by Immunofluorescent staining based fluorescence microscopy; type: cell-based
NCI-H460 [20] = experiment: Growth inhibition of human NCI-H460 cells incubated for 48 hrs by MTT assay; type: functional, cell-based; details: NCI-H460, 48 h
Tubulin (Sus scrofa) [21] = biological target: T1, Tubulin (Sus scrofa); experiment: Displacement of [3H]colchicine from biotinylated porcine tubulin at 5 uM incubated for 2 hrs by competition scintillation proximity; type: protein assay
A549 [22] = experiment: Inhibition of colony formation in human A549 cells incubated for 9 days by crystal violet staining based assay; type: functional, cell-based
[23] = biological target: T2, Tubulin alpha (Homo sapiens); experiment: Inhibition of alpha tubulin polymerization in human A549 cells assessed as induction of cell border shrinkage of microtubules at 40 nM by Immunofluorescent staining based fluorescence microscopy
A549 [24] = experiment: Reduction in p-cdc2 expression in human A549 cells incubated for 24 hrs by Western blotting; type: functional, cell-based
[25] = Toxicity in human NSCLC xenografted Balb/c-nu mouse assessed as induction of adverse effects at 12.5 mg/kg, ip dosed every day for 21 consecutive days; type: organism-based; details: in vivo
A549 [26] = experiment: Induction of cell cycle arrest in human A549 cells assessed as accumulation at G2/M phase incubated for 24 hrs by propidium iodide staining based FACS flow cytometry; type: functional
A549 [27] = experiment: Induction of apoptosis in human A549 cells assessed as late apoptotic cells level at 40 nM incubated for 24 hrs by Annexin V-FITC/PI staining based FACS flow cytometry (reference value: 2.15%); type: functional
Tubulin = Tubulin (Sus scrofa, UniProt P02554+P02550); experiment: (§1) Inhibition of porcine brain tubulin polymerization incubated for 60 mins by fluorescence-based assay
Tubulin (Sus scrofa) [28] = biological target: T1, Tubulin (Sus scrofa); experiment: as §1
HUVEC [29] = experiment: Inhibition of capillary tube formation in HUVEC assessed as reduction in tube-like structures formation at 40 nM incubated for 8 hrs by fluorescence microscopy based 3D-matrigel assay; type: functional; details: Homo sapiens
A549 [30] = experiment: Increase in cyclin B1 expression in human A549 cells incubated for 24 hrs by Western blotting; type: functional, cell-based
HUVEC [31] = experiment: Inhibition of capillary tube formation in HUVEC assessed as reduction in tube-like structures formation at 20 nM incubated for 8 hrs by fluorescence microscopy based 3D-matrigel assay; type: functional; details: Homo sapiens
A549 [32] = experiment: Induction of apoptosis in human A549 cells assessed as induction of cytoplasmic membrane blebbing at 40 nM incubated for 24 hrs microscopy; type: functional, cell-based
[33] = Toxicity in human NSCLC xenografted Balb/c-nu mouse assessed as induction of adverse effects at 50 mg/kg, ip dosed every day for 21 consecutive days; type: organism-based; details: in vivo
[34] = Toxicity in human NSCLC xenografted Balb/c-nu mouse assessed as effect on body weight at 12.5 mg/kg, ip dosed every day for 21 consecutive days; type: organism-based; details: in vivo
A549 [35] = experiment: Induction of apoptosis in human A549 cells assessed as early apoptotic cells level at 10 nM incubated for 24 hrs by Annexin V-FITC/PI staining based FACS flow cytometry (reference value: 0.65%); type: functional

CCOc1cccc(Nc2nn(C)c3c2Cc2cc(OCC)c(OCC(N)=O)cc2-3)c1
inhibition (NCI-H460 [1]): Dose-dependent effect
Activity (A549 [2]): 1.23%
Activity (A549 [3]): Dose-dependent effect
Activity (A549 [4]): 2.7%
IC50 (HeLa): 7.4 nM
IC50 (PC-3): 19 nM
Activity (A549 [5]): 4.57%
inhibition (Tubulin (Sus scrofa) [6]): 37%
Activity (A549 [7]): Active
inhibition (HUVEC [8]): Dose-dependent effect
IC50 (MCF7): 32.3 nM
Activity (A549 [9]): 9.06%
Activity (HUVEC [10]): Non-Toxic
Activity (A549 [11]): Dose-dependent effect
Activity (A549 [12]): 68.1%
Activity [13]: Active
Activity (A549 [14]): Active
inhibition in vivo at 50 mg/kg [15]: 59.1%
Activity (A549 [16]): 3.78%
Activity (A549 [17]): 84.24%
Activity (A549 [18]): Non-Toxic
inhibition [19]: Active
IC50 (NCI-H460 [20]): 37.3 nM
inhibition (Tubulin (Sus scrofa) [21]): 67%
inhibition (A549 [22]): Dose-dependent effect
inhibition [23]: Active
Activity (A549 [24]): Dose-dependent effect
Activity [25]: Non-Toxic
Activity (A549 [26]): Dose-dependent effect
Activity (A549 [27]): 5.47%
IC50 (Tubulin): 4620 nM
inhibition (Tubulin (Sus scrofa) [28]): Dose-dependent effect
inhibition at 0.04 µM (HUVEC [29]): 69%
Activity (A549 [30]): Dose-dependent effect
inhibition at 0.02 µM (HUVEC [31]): 58%
Activity (A549 [32]): Active
Activity [33]: Non-Toxic
Activity [34]: Non-Toxic
Activity (A549 [35]): 1.01%
